Data taken from patent US12642799B2, “Composition and method for treating COVID-19” (University of South Florida, priority 2021, dated 2026).
Where two headings read alike, the source gives them in different places.

Tests used:
[1] = test system: SARS CoV-2 infected Caco2 cells; type: cell-based
[2] = test system: IL-6, IL-1β, and TNFα; type: cell-based
[3] = test system: GFP-CoV-2 infected mature adipocytes; type: cell-based, SARS CoV-2; settings: for reduction in infection by cytoimmunochemical staining (SARS CoV-2/ACE2): mature adipocytes, FIG. 3C
[4] = test system: serum inflammatory markers and anti-inflammatory cytokines; settings: Type 2 diabetic patients; cited from earlier work
[5] = test system: CoV-2 infection; type: in vivo, human; settings: obese Type 2 diabetic patient, oral, retested twice over several weeks

| SMILES | expression of SARS CoV-2 N protein (fold change) [1] | expression of SARS CoV-2 S protein (fold change) [1] | expression of IL-1β (fold change) [2] | expression of IL-6 (fold change) [2] | expression of TNFα (fold change) [2] | inhibition of viral infection (integrated density of GFP expression) [3] | reduction in infection by cytoimmunochemical staining (SARS CoV-2/ACE2) [3] | anti-inflammatory cytokines [4] | serum levels of inflammatory markers [4] | virus test after treatment [5] | inhibition of viral infection (integrated density of GFP expression) ([3]; […], metformin 10 mM, sitagliptin 20 uM) |
| --- | --- | --- | --- | --- | --- | --- | --- | --- | --- | --- | --- |
| CN(C)C(=N)N=C(N)N [metformin] | decreasing expression | decreasing expression | decreasing expression | decreasing expression | decreasing expression | inhibited viral infection | reduction in infection |  |  |  |  |
| N[C@@H](CC(=O)N1CCn2c(nnc2C(F)(F)F)C1)Cc1cc(F)c(F)cc1F [sitagliptin] | larger decrease than metformin | larger decrease than metformin | decreasing expression | decreasing expression | decreasing expression |  | highest reduction | increased | significantly decreased | tests negative for the virus | highest reduction |
